{"source": "patent US7628765B2", "about": "“Increasing retrievable cells from a breast duct” (Cytyc Corporation, priority 2001, dated 2009)", "test_system": "breast ducts of live rabbits", "assay": "Ductal fluid collection after intraductal injection of mannitol solution in live rabbit", "type": "in vivo, New Zealand rabbit", "conditions": "for recovery: out-flow liquid checked about an hour later", "description": "The objective of these experiments was to test the effects of the introduction of a solution containing mannitol on the secretion of fluid from the breast ducts of live rabbits. New Zealand rabbit #3242, female, from Kraelik Farm in CA weighing 4.1 kg was used. The rabbit was anesthetized by injection of 200 mg of ketamine and 40 mg of Zylazine. A second injection of 100 mg of ketamine and 20 mg of xylazine was made 2 hours later to maintain the rabbit in a deep plane of anesthesia. The thorax and abdomen of the rabbit was shaved to expose the breasts and nipples.\nA single lumen blue color catheter (O.D. 0.23″ ID 0.017; O.D. at the tip 0.011″-0.012″) was inserted into a duct in each nipple. Three nipples were tested, and 2 ducts per nipple were accessed with a catheter. The nipples were identified A, B, and C.\nA duct on nipple A was injected with 0.20 ml of a 12.5% solution of D-Mannitol in H2O (available from Sigma Chemicals, St. Louis, Mo. cat# M-9546 lot 6710402: C6H14O6 FW 182.2) with a single catheter. The control duct on nipple A was injected with 0.20 ml of phosphate buffered saline (PBS). A microfuge tube was attached to the end of each catheter to collect out flow liquid. Ten minutes later 0.2 ml of a 12.5% solution of D-Mannitol in H2O was injected into the first duct and the second duct was injected with 0.20 ml of phosphate buffered saline, for a total volume injected in each duct of 0.40 ml.\nA duct on nipple B was injected with 0.5 ml of a 12.5% solution of D-Mannitol in H2O with a single catheter. The control duct on nipple B was injected with 0.50 ml of phosphate buffered saline (PBS). A microfuge tube was attached to the end of each catheter to collect out-flow liquid.\nA duct on nipple C was injected with 0.7 ml of a 12.5% solution of D-Mannitol in H2O with a single catheter. The control duct on nipple C was injected with 0.70 ml of phosphate buffered saline (PBS). A microfuge tube was attached to the end of each catheter to collect out flow liquid.\nAbout an hour after the fluid containing mannitol or PBS was injected into the ducts via the catheters, the microfuge tubes were checked for whether any fluid was returned."}
{"smiles": "OC[C@@H](O)[C@@H](O)[C@H](O)[C@H](O)CO", "note": "[mannitol, D-Mannitol]", "values": [{"measurement": "ducts from which fluid can be collected", "setting": "ducts injected with 12.5% mannitol solution, 0.4-0.7 ml, PBS control 1 out of 3", "result": "three out of three"}, {"measurement": "recovery", "setting": "nipple A, duct A1, 0.4 ml total of 12.5% solution (2 x 0.2 ml, 10 min apart) injected intraductally", "result": 310, "unit": "ul liquid"}, {"measurement": "recovery", "setting": "nipple B, duct B1, 0.5 ml of 12.5% solution injected intraductally", "result": 490, "unit": "ul liquid"}, {"measurement": "recovery", "setting": "nipple C, duct C1, 0.7 ml of 12.5% solution injected intraductally", "result": 280, "unit": "ul liquid"}]}
